The record followed here is patent US20080146570A1, “Chemical Compounds” (ASTRAZENECA AB, priority 2005, published 2008).

The assay addresses T1, human recombinant, purified wild type His-B-Raf protein kinase (Homo sapiens, UniProt P15056).
T1 construct: His
Kind of assay: B-Raf In Vitro ELISA Assay. The conditions noted are these: ELISA of MEK1 phosphorylation; 2.5 nM B-Raf, 10 μM ATP; 1 hour preincubation at 25° C. The assay is classed as biochemical. How it is done: B-Raf In Vitro ELISA Assay
Activity of human recombinant, purified wild type His-B-Raf protein kinase was determined in vitro using an enzyme-linked immunosorbent assay (ELISA) assay format, which measures phosphorylation of the B-Raf substrate, human recombinant, purified His-derived (detagged) MEK1. The reaction utilized 2.5 nM B-Raf, 0.15 μM […] and 10 μM adenosine triphosphate (ATP) in 40 mM N-(2-hydroxyethyl)piperazine-N′-(2-ethanesulfonic acid hemisodium salt (HEPES), 5 mM 1,4-dithio-DL-threitol (DTT), 10 mM MgCl2, 1 mM ethylenediaminetetraacetic acid (EDTA) and 0.2 M NaCl (1×HEPES buffer), with or without compound at various concentrations, in a total reaction volume of 25 μl in 384 well plates. B-Raf and compound were preincubated in 1×HEPES buffer for 1 hour at 25° C. Reactions were initiated with addition of MEK1 and ATP in 1×HEPES buffer and incubated at 25° C. for 50 minutes and reactions stopped by addition of 10 μl 175 mM EDTA (final concentration 50 mM) in 1×HEPES buffer. 5 μl of the assay mix was then diluted 1:20 into 50 mM EDTA in 1×HEPES buffer, transferred to 384 well black high protein binding plates and incubated overnight at 4° C. […] Blue fluorescent product was detected at excitation 325 and emission 420 using a TECAN Ultra plate reader. Data was graphed and IC50s calculated using Excel Fit (Microsoft).
In general terms: ELISA stands for enzyme-linked immunosorbent assay.

T1 sequence (P15056 whole entry): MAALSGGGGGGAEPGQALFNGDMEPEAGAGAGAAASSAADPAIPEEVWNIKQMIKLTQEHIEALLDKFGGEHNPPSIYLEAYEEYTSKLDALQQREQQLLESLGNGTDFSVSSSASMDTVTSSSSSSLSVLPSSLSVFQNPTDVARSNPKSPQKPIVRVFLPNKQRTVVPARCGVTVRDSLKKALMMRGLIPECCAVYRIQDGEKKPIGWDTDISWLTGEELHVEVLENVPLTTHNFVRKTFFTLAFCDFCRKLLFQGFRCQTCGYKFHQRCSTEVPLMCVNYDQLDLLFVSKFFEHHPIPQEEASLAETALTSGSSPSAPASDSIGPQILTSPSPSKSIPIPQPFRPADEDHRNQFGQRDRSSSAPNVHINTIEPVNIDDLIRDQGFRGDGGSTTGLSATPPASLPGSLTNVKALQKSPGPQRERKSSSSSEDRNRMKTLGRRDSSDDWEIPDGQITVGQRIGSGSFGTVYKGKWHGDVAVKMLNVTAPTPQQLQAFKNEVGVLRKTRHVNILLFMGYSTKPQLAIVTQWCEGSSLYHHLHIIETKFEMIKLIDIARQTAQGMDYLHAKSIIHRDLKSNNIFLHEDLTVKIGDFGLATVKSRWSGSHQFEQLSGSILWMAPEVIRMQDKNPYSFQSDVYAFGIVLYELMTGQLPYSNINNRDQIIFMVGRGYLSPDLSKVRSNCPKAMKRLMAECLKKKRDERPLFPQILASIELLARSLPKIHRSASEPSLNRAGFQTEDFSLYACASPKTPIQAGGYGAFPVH

As a reminder, the IC50 is the concentration needed to halve the response being measured. Turning to `Cc1ccc(NC(=O)c2cccc(C(C)(C)C#N)c2)cc1Nc1ccnc(-c2cccnc2)n1` [Example 2, 3-(1-Cyano-1-methylethyl)-N-{4-methyl-3-[(2-pyridin-3-ylpyrimidin-4-yl)amino]phenyl}benzamide], the IC50 turned out to be 153 nM. The result for `Cc1ccc(NC(=O)c2cccc(C(C)(C)C#N)c2)cc1Nc1cc(NC2CC2)nc(-c2cccnc2)n1` [Example 4, 3-(Cyano-dimethyl-methyl)-N-[3-(6-cyclopropylamino-2-pyridin-3-yl-pyrimidin-4-ylamino)-4-methyl-phenyl]benzamide] reads 1350 nM.
